From patent publication US20050038058A1, “Novel compounds and methods for therapy” (Institute of Organic Chemistry and Biochemistry, priority 2001, published 2005)
≈ marks a conversion by molar mass, not a printed value. Read-outs that look alike come from different tables or passages of the source.

Experiments:
HIV-2(ROD) [1] = test: HIV-2(ROD)-induced cytopathicity in CEM cell cultures; type: cell-based; conditions: for EC50: Human immunodeficiency virus 2, CCRF-CEM, read-out: EC50 HIV-2 (ROD) (CEM)
From the text: (§1) Viruses. The origins of MSV, HIV type 1 (HIV-1) (strain IIIB and Ba-L), HIV-2 (strain ROD) and FIV (strain Petaluma) have been described previously (Balzarini et al., AIDS 5: 21-28, 1991; De Clercq et al., Proc. Soc. Exp. Biol. Med. 137:590-594, 1971; Egberink et al., Proc. Natl. Acad. Sci. 87:3087-3091, 1990; Hartmann et al., Antiviral Chem. Chemother. 5:13-19, 1994; Popovic et al., Science 224:497-500, 1984). HIV-1(IIIB) and HIV-2(ROD) stocks were obtained from supernatants of virus-infected MT-4 cell cultures. HIV-1BaL was expanded in human primary M/M, whose supernatants were collected, filtered and stored at −80° C. before use. Characteristics of viral stocks used for this study were 2.1×10^8 HIV-RNA genomes/ml (corresponding to 35 ng of p24 antigen) and 5,000 tissue culture infectious doses 50% per ml (TCID50/ml) as assessed by virus titration in other primary M/M cultures. The isolation and characterization of the clinical HIV-1 isolates L1S, L6S and L6S/PMEA has been reported (Thormar et al., Proc. Natl. Acad. Sci. USA 93:3283-3287, 1995; Van Laethem et al., AIDS 15:553-561, 2001). […] HIV-1/L6S/PMEA is the clinical isolate HIV-1/L6S that has been isolated after culturing the virus for 11 passages in the presence of increasing concentrations of PMEA (adefovir).
(§2) In vitro antiviral assays. The activity against HIV-1- and HIV-2-induced cytopathicity was examined in MT-4 cell cultures at day 5 post infection and based on the determination of cell viability by trypan blue dye staining or in CEM cell cultures at day 4 to 5 post infection and based on the microscopical examination of virus-induced giant cell formation. HIV-1 and HIV-2 were added at 100 CCID50 to the cell cultures.

CEM cells = test: Incorporation of [3H]thymidine, [3H]uridine and [3H]leucine into CEM cell material; type: cell-based; conditions: 200 μg/mL; 12 hour incubation period
Method: The incorporation of [methyl-^3H]thymidine, [^3H]uridine and [^3H]leucine into the methanol-insoluble CEM cell fraction was also measured in microplates. To each well were added 10^5 CEM cells, 5.9 pmol (0.25 μCi) of [methyl-^3H]thymidine, 38 pmol (1.0 μCi) of [^3H]uridine and 19 pmol (1.0 μCi) [4,5-^3H]leucine, and a given amount of the test compound. […] At the end of this incubation period, the contents of the wells (200 μl) were brought onto 25-mm glass fiber filters (type A/G; Gelman Instrument Co., Ann Arbor, Mich.) mounted on a Millipore 3025 sampling manifold apparatus. The filters were washed twice with cold PBS (phosphate-buffered saline), twice with cold 10% trichloroacetic acid, twice with cold 5% trichloroacetic acid, once with cold ethanol, and once with cold ether. The filters were then allowed to dry for 10 min at 60° C. and assayed for radioactivity in a toluene-based scintillant.

C3H cells = test: Alteration of C3H cell morphology (minimal inhibitory concentration); type: cell-based, murine; conditions: for CC50 C3H (minimal inhibitory concentration): microscopically visible alteration of cell morphology, > means no visible toxicity at the indicated concentration; for Compound concentration at which morphological toxicity was observed, C3H (value between parentheses): Table 2, footnote c
FIV (strain Petaluma) = test: Anti-FIV assay, p24 antigen in CrFK cells; type: cell-based; conditions: Table 2; for EC50: Feline immunodeficiency virus, CRFK
Method: For the anti-FIV assays, 10^5 CrFK cells were seeded onto 24-well tissue culture plates. Cells were cultured with 2 ml of culture medium/well containing 2.5% of fetal calf serum in the presence of various drug concentrations. The assays were carried out in triplicate. After a 1-hr incubation period at 37° C., cells were infected with FIV. Virus was left in contact with the cultures for 1 day, after which the medium was removed and new medium containing the appropriate drug concentrations was added. After 6 days, the presence of FIV p24 antigen was examined by an antigen capture assay.

MSV = test: MSV-induced transformation of murine embryo fibroblast C3H/3T3 cell cultures; type: cell-based; conditions: for EC50: Mus musculus
Method: The inhibitory effect of the test compounds on MSV-induced transformation of murine embryo fibroblast C3H/3T3 cell cultures was examined microscopically at day 6 post infection. MSV was added at 75 focus-forming units to the cell cultures. The detailed procedures for the antiretroviral evaluations has been described in detail before (Balzarini et al., AIDS 5:21-28, 1991; Balzarini et al., Antimicrob. Agents Chemother. 37:332-338, 1993; De Clercq et al., Proc. Soc. Exp. Biol. Med. 137:590-594, 1971).

HIV-2(ROD) [2] = test: HIV-2(ROD)-induced cytopathicity in MT-4 cell cultures; type: cell-based
From the text: as §1, §2

HIV-1/L6S = type: cell-based; conditions: measured against the laboratory HIV-1/IIIB strain in CEM cell cultures
From the text: as §1, §2

HIV-1/L1S = type: cell-based; conditions: measured against the laboratory HIV-1/IIIB strain in CEM cell cultures
From the text: as §1, §2

HIV-1/L6S/PMEA = type: cell-based; conditions: measured against the laboratory HIV-1/IIIB strain in CEM cell cultures
From the text: as §1, §2

[3] = MT-4 cell toxicity (trypan blue exclusion); type: cell-based; conditions: human, reduction of cell viability, Table 2
Method: Cytostatic and antimetabolic effect of acyclic nucleoside phosphonates in vitro. The assays to examine the inhibition of CEM cell growth by the test compounds have been described previously (Balzarini et al., AIDS 5:21-28, 1991). The 50% cytostatic concentration (CC50) was defined as the concentration of compound that reduced the number of living cells by 50% . To measure MT-4 cell toxicity of the test compounds, 5×10^4 MT-4 cells were incubated in the wells of 96-well microplates in the presence or absence of different concentrations of the test compounds for 5 days at 37° C. The CC50 was then calculated from the number of living cells counted under a microscope by the trypan blue exclusion method.

[4] = Alteration of C3H cell morphology (minimal inhibitory concentration); type: cell-based, murine; conditions: mouse, microscopically visible alteration of cell morphology, > means no visible toxicity at the indicated concentration, read-out: CC50 C3H (minimal inhibitory concentration)
Toxicity in CrFK cells = type: cell-based, feline; conditions: cat, Table 2
[5] = MSV-induced C3H cell transformation, Table 2
[6] = C3H/3T3 embryo fibroblast cells
[7] = MSV-induced C3H cell transformation, Table 2, read-out: EC50 MSV (C3H)
[8] = Human immunodeficiency virus 2, MT4, read-out: EC50 HIV-2 (ROD) (MT-4)

Structure (SMILES): C[C@H](Cn1cnc2c(N)ncnc21)OCP(=O)(O)O [(R)-PMPA, (R)-9-[(2-phosphonomethoxy)-propyl]adenine, reference compound]
- EC50 HIV-2 (ROD) (CEM) (HIV-2(ROD) [1]; giant cell formation, Table 2): 0.43 ± 0.41 µg/mL (≈ 1.5 µM)
- Inhibition of [3H]dThd, [3H]Urd and [3H]leu incorporation into TCA-insoluble CEM cell material (macromolecular synthesis) (CEM cells): not inhibitory
- CC50 C3H (minimal inhibitory concentration) (C3H cells): >200 µg/mL
- EC50 FIV (CrFK) (FIV (strain Petaluma)): 0.13 µg/mL (≈ 0.453 µM)
- EC50 MSV (C3H) (MSV; [5]): 1.4 ± 0.9 µg/mL (≈ 4.87 µM)
- EC50 HIV-2 (ROD) (MT-4) (HIV-2(ROD) [2]; Table 2): 0.52 µg/mL (≈ 1.81 µM)
- -Fold Resistance HIV-1/L6S (HIV-1/L6S): 11 fold
- -Fold Resistance HIV-1/L1S (HIV-1/L1S): 2.3 fold
- -Fold Resistance HIV-1/L6S/PMEA (HIV-1/L6S/PMEA): 54 fold

Structure (SMILES): Nc1cc(OCCOCP(=O)(O)O)nc(N)n1 [Compound 1, 2,4-diamino-6-[2-(phosphonomethoxy)ethoxy]pyrimidine]
- CC50 at 5 days ([3]; MT-4 cells): 46 ± 7.4 µg/mL (≈ 174 µM)
- EC50 (HIV-2(ROD) [1]): 0.66 ± 0.19 µg/mL (≈ 2.5 µM)
- Inhibition of [3H]dThd, [3H]Urd and [3H]leu incorporation into TCA-insoluble CEM cell material (macromolecular synthesis) (CEM cells): Neither compounds 1 nor 2, nor compound 11 were inhibitory
- Minimal concentration causing visible cell morphology alteration [4, 6]: > 40 µg/mL
- Compound concentration at which morphological toxicity was observed, C3H (value between parentheses) (C3H cells): 200 μg/ml
- EC50 (FIV (strain Petaluma)): 0.25 ± 0.01 µg/mL (≈ 0.946 µM)
- EC50 (MSV; C3H, read-out: EC50 against MSV-induced C3H cell transformation): 0.05 to 0.15 µg/mL (≈ 0.189 to 0.568 µM)
- EC50 (MSV; [7]): 0.16 ± 0.04 µg/mL (≈ 0.606 µM)
- EC50 (HIV-2(ROD) [2]; [8]): 0.29 µg/mL (≈ 1.1 µM)
- -Fold Resistance HIV-1/L6S (HIV-1/L6S): 1.5 fold
- -Fold Resistance HIV-1/L1S (HIV-1/L1S): 0.8 fold
- -Fold Resistance HIV-1/L6S/PMEA (HIV-1/L6S/PMEA): 3.6 fold
- CC50 (Toxicity in CrFK cells; CrFK cells): 11 µg/mL (≈ 41.6 µM)

Structure (SMILES): Nc1cc(SCCOCP(=O)(O)O)nc(N)n1 [Compound 2, 2,4-diamino-6-{[2-(phosphonomethoxy)ethyl]-sulfanyl}pyrimidine]
- CC50 at 5 days ([3]; MT-4 cells): ≥ 100 µg/mL
- EC50 (HIV-2(ROD) [1]): 3 ± 1.4 µg/mL (≈ 10.7 µM)
- Inhibition of [3H]dThd, [3H]Urd and [3H]leu incorporation into TCA-insoluble CEM cell material (macromolecular synthesis) (CEM cells): Neither compounds 1 nor 2, nor compound 11 were inhibitory
- Minimal concentration causing visible cell morphology alteration [4, 6]: > 40 µg/mL
- Compound concentration at which morphological toxicity was observed, C3H (value between parentheses) (C3H cells): 200 μg/ml
- EC50 (FIV (strain Petaluma)): 0.97 ± 0.4 µg/mL (≈ 3.46 µM)
- EC50 (MSV; [7]): 1.7 ± 0.9 µg/mL (≈ 6.07 µM)
- EC50 (HIV-2(ROD) [2]; [8]): 2.9 µg/mL (≈ 10.3 µM)
- -Fold Resistance HIV-1/L6S (HIV-1/L6S): 1.4 fold
- -Fold Resistance HIV-1/L1S (HIV-1/L1S): 2.1 fold
- -Fold Resistance HIV-1/L6S/PMEA (HIV-1/L6S/PMEA): 14 fold
- CC50 (Toxicity in CrFK cells; CrFK cells): 42 µg/mL (≈ 150 µM)

Structure (SMILES): C[C@H](COc1cc(N)nc(N)n1)OCP(=O)(O)O [Compound 11, 2,4-diamino-6-(R)-[2-(phosphonomethoxy)propoxy]pyrimidine]
- EC50 HIV-2 (ROD) (CEM) (HIV-2(ROD) [1]; giant cell formation, Table 2): 1.3 ± 0.4 µg/mL (≈ 4.67 µM)
- Inhibition of [3H]dThd, [3H]Urd and [3H]leu incorporation into TCA-insoluble CEM cell material (macromolecular synthesis) (CEM cells): Neither compounds 1 nor 2, nor compound 11 were inhibitory
- Compound concentration at which morphological toxicity was observed, C3H (value between parentheses) (C3H cells): 200 μg/ml
- CC50 C3H (minimal inhibitory concentration) (C3H cells): > 40 µg/mL
- EC50 FIV (CrFK) (FIV (strain Petaluma)): 0.66 ± 0.14 µg/mL (≈ 2.37 µM)
- EC50 MSV (C3H) (MSV; [5]): 0.05 ± 0.01 µg/mL (≈ 0.18 µM)
- EC50 HIV-2 (ROD) (MT-4) (HIV-2(ROD) [2]; Table 2): 1.6 ± 0.6 µg/mL (≈ 5.75 µM)
- -Fold Resistance HIV-1/L6S (HIV-1/L6S): 3.5 fold
- -Fold Resistance HIV-1/L1S (HIV-1/L1S): 1.9 fold
- -Fold Resistance HIV-1/L6S/PMEA (HIV-1/L6S/PMEA): 30 fold

Structure (SMILES): Nc1ncnc2c1ncn2CCOCP(=O)(O)O [PMEA, 9-[(2-phosphono-methoxy)ethyl]adenine, reference compound]
- CC50 at 5 days [3]: 28 ± 12 µg/mL (≈ 102 µM)
- EC50 (HIV-2(ROD) [1]; giant cell formation, Table 2): 1.9 ± 1.1 µg/mL (≈ 6.95 µM)
- Inhibition of [3H]dThd, [3H]Urd and [3H]leu incorporation into TCA-insoluble CEM cell material (macromolecular synthesis) (CEM cells): not inhibitory
- Minimal concentration causing visible cell morphology alteration [4]: > 40 µg/mL
- Compound concentration at which morphological toxicity was observed, C3H (value between parentheses) (C3H cells): 200 μg/ml
- EC50 (FIV (strain Petaluma)): 0.46 ± 0.19 µg/mL (≈ 1.68 µM)
- EC50 (MSV; [7]): 0.62 ± 0.27 µg/mL (≈ 2.27 µM)
- EC50 (HIV-2(ROD) [2]; Human immunodeficiency virus 2, MT4, Table 2, read-out: EC50 HIV-2 (ROD) (MT-4)): 1.9 µg/mL (≈ 6.95 µM)
- -Fold Resistance HIV-1/L6S (HIV-1/L6S): 2.7 fold
- -Fold Resistance HIV-1/L1S (HIV-1/L1S): 2.0 fold
- -Fold Resistance HIV-1/L6S/PMEA (HIV-1/L6S/PMEA): 7.3 fold
- CC50 (Toxicity in CrFK cells): 18 µg/mL (≈ 65.9 µM)
